Data taken from patent US20230067378A1, “COMPOSITIONS AND METHODS FOR THE TREATMENT OF ESTROGEN-DEPENDENT DISORDERS” (ObsEva S.A., priority 2018, published 2023).

Test system: pre-menopausal women
Assay: uterine bleeding pattern, clinical trial of compound (VI) 200 mg per day (choline salt) with add-back therapy (1.0 mg E2, 0.5 mg norethindrone acetate)
Assay type: in vivo, human
Method: The experiments described in this example were conducted as part of a single-center, open-label, randomized, parallel-group clinical trial in 32 pre-menopausal women. Following screening assessments, and during the second half of the menstrual cycle, women received norethindrone (5 mg, three-times daily for 10 days) to synchronize menstrual cycles. After menstrual cycle synchronization, subjects were randomized with a 1:1 ratio to one of two treatment arms: (i) a cohort receiving once-daily administration of compound (VI) (200 mg per day, administered in the form of a choline salt) with concurrent onset of add-back therapy administration for 10 weeks (“Concurrent-ABT”), or (ii) a cohort receiving pre-treatment with compound (VI) (200 mg per day, administered in the form of a choline salt) for 4 weeks followed by combined daily administration of compound (VI) and add-back therapy (“Delayed-ABT”). The add-back therapy used in these experiments contained 1.0 mg of E2 and 0.5 mg of norethindrone acetate, and was administered to subjects once daily.
The main treatment outcomes and endpoints measured during these experiments included (i) a qualitative assessment of uterine blood loss, which was recorded on a daily basis throughout the study by characterizing each subject's bleeding pattern using one of the following four categories: “no bleeding,” “spotting” (light staining, dark blood, no sanitary protection needed or only panty liner), “bleeding” (1-4 completely soiled maxi sanitary towels or 1-8 soiled tampons or equivalent combination of the two), or “heavy bleeding” (>4 completely soiled maxi sanitary towels or >8 soiled tampons or equivalent combination of the two); (ii) a bi-weekly assessment of each subject's circulating E2 concentration; (iii) a bi-weekly assessment of each subject's circulating progesterone concentration (measured using a validated commercial chemiluminescence immunoassay method (Elecsys Progesterone III, Roche, Burgess Hill, UK)); (iv) the pharmacokinetic profile of compound (VI) and the add-back therapy; and (v) adverse events.

[1] = Days 29-42, treatment A (Concurrent-ABT), N=14
[2] = Days 29-42, treatment B (Delayed-ABT), N=15
[3] = Days 43-56, Overall (A+B), N=29
[4] = Days 43-56, treatment A (Concurrent-ABT), N=14
[5] = Days 43-56, treatment B (Delayed-ABT), N=15
[6] = Days 57-70, Overall (A+B), N=29
[7] = Days 57-70, treatment A (Concurrent-ABT), N=14
[8] = Days 57-70, treatment B (Delayed-ABT), N=15
[9] = Delayed-ABT cohort, after add-back therapy was initiated in week 5

## COc1cc(F)c(-n2c(=O)[nH]c3csc(C(=O)O)c3c2=O)cc1OCc1c(OC)ccc(F)c1F [Compound (VI), 3-[2-fluoro-5-(2,3-difluoro-6-methoxybenzyloxy)4-methoxyphenyl]-2,4-dioxo-1,2,3,4-tetrahydrothieno [3,4d]pyrimidine-5-carboxylic acid]
[1]
  No Bleeding or Spotting, subjects (n), Plasma Estradiol Level 20-50 pg/mL: 9
  No Bleeding or Spotting, subjects (n), Plasma Estradiol Level <20 pg/mL: 1
  No Bleeding or Spotting, subjects (n), Plasma Estradiol Level >50 pg/mL: 3
  No Bleeding, subjects (%), Plasma Estradiol Level 20-50 pg/mL: (50.0%)
  No Bleeding, subjects (%), Plasma Estradiol Level <20 pg/mL: (7.1%)
  No Bleeding, subjects (%), Plasma Estradiol Level >50 pg/mL: (21.4%)
  No Bleeding, subjects (n), Plasma Estradiol Level 20-50 pg/mL: 7
  No Bleeding, subjects (n), Plasma Estradiol Level <20 pg/mL: 1
  No Bleeding, subjects (n), Plasma Estradiol Level >50 pg/mL: 3
[2]
  No Bleeding or Spotting, subjects (%), Plasma Estradiol Level 20-50 pg/mL: (46.7%)
  No Bleeding or Spotting, subjects (%), Plasma Estradiol Level <20 pg/mL: (20.0%)
  No Bleeding or Spotting, subjects (%), Plasma Estradiol Level >50 pg/mL: (20.0%)
  No Bleeding or Spotting, subjects (n), Plasma Estradiol Level 20-50 pg/mL: 7
  No Bleeding or Spotting, subjects (n), Plasma Estradiol Level <20 pg/mL: 3
  No Bleeding or Spotting, subjects (n), Plasma Estradiol Level >50 pg/mL: 3
  No Bleeding, subjects (%), Plasma Estradiol Level 20-50 pg/mL: (33.3%)
  No Bleeding, subjects (%), Plasma Estradiol Level <20 pg/mL: (20.0%)
  No Bleeding, subjects (%), Plasma Estradiol Level >50 pg/mL: (13.3%)
  No Bleeding, subjects (n), Plasma Estradiol Level 20-50 pg/mL: 5
  No Bleeding, subjects (n), Plasma Estradiol Level <20 pg/mL: 3
  No Bleeding, subjects (n), Plasma Estradiol Level >50 pg/mL: 2
[3]
  No Bleeding or Spotting, subjects (%), Plasma Estradiol Level 20-50 pg/mL: (51.7%)
  No Bleeding or Spotting, subjects (%), Plasma Estradiol Level <20 pg/mL: (13.8%)
  No Bleeding or Spotting, subjects (%), Plasma Estradiol Level >50 pg/mL: (17.2%)
  No Bleeding or Spotting, subjects (n), Plasma Estradiol Level 20-50 pg/mL: 15
  No Bleeding or Spotting, subjects (n), Plasma Estradiol Level <20 pg/mL: 4
  No Bleeding or Spotting, subjects (n), Plasma Estradiol Level >50 pg/mL: 5
  No Bleeding, subjects (%), Plasma Estradiol Level 20-50 pg/mL: (37.9%)
  No Bleeding, subjects (%), Plasma Estradiol Level <20 pg/mL: (10.3%)
  No Bleeding, subjects (%), Plasma Estradiol Level >50 pg/mL: (13.8%)
  No Bleeding, subjects (n), Plasma Estradiol Level 20-50 pg/mL: 11
  No Bleeding, subjects (n), Plasma Estradiol Level <20 pg/mL: 3
  No Bleeding, subjects (n), Plasma Estradiol Level >50 pg/mL: 4
[4]
  No Bleeding or Spotting, subjects (%), Plasma Estradiol Level 20-50 pg/mL: (57.1%)
  No Bleeding or Spotting, subjects (%), Plasma Estradiol Level <20 pg/mL: (7.1%)
  No Bleeding or Spotting, subjects (%), Plasma Estradiol Level >50 pg/mL: (21.4%)
  No Bleeding or Spotting, subjects (n), Plasma Estradiol Level 20-50 pg/mL: 8
  No Bleeding or Spotting, subjects (n), Plasma Estradiol Level <20 pg/mL: 1
  No Bleeding or Spotting, subjects (n), Plasma Estradiol Level >50 pg/mL: 3
  No Bleeding, subjects (%), Plasma Estradiol Level 20-50 pg/mL: (50.0%)
  No Bleeding, subjects (%), Plasma Estradiol Level <20 pg/mL: (7.1%)
  No Bleeding, subjects (%), Plasma Estradiol Level >50 pg/mL: (21.4%)
  No Bleeding, subjects (n), Plasma Estradiol Level 20-50 pg/mL: 7
  No Bleeding, subjects (n), Plasma Estradiol Level <20 pg/mL: 1
  No Bleeding, subjects (n), Plasma Estradiol Level >50 pg/mL: 3
[5]
  No Bleeding or Spotting, subjects (%), Plasma Estradiol Level 20-50 pg/mL: (46.7%)
  No Bleeding or Spotting, subjects (%), Plasma Estradiol Level <20 pg/mL: (20.0%)
  No Bleeding or Spotting, subjects (%), Plasma Estradiol Level >50 pg/mL: (13.3%)
  No Bleeding or Spotting, subjects (n), Plasma Estradiol Level 20-50 pg/mL: 7
  No Bleeding or Spotting, subjects (n), Plasma Estradiol Level <20 pg/mL: 7
  No Bleeding or Spotting, subjects (n), Plasma Estradiol Level >50 pg/mL: 2
  No Bleeding, subjects (%), Plasma Estradiol Level 20-50 pg/mL: (26.7%)
  No Bleeding, subjects (%), Plasma Estradiol Level <20 pg/mL: (13.3%)
  No Bleeding, subjects (%), Plasma Estradiol Level >50 pg/mL: (6.7%)
  No Bleeding, subjects (n), Plasma Estradiol Level 20-50 pg/mL: 4
  No Bleeding, subjects (n), Plasma Estradiol Level <20 pg/mL: 2
  No Bleeding, subjects (n), Plasma Estradiol Level >50 pg/mL: 1
[6]
  No Bleeding or Spotting, subjects (%), Plasma Estradiol Level 20-50 pg/mL: (48.3%)
  No Bleeding or Spotting, subjects (%), Plasma Estradiol Level <20 pg/mL: (20.7%)
  No Bleeding or Spotting, subjects (%), Plasma Estradiol Level >50 pg/mL: (13.8%)
  No Bleeding or Spotting, subjects (n), Plasma Estradiol Level 20-50 pg/mL: 14
  No Bleeding or Spotting, subjects (n), Plasma Estradiol Level <20 pg/mL: 6
  No Bleeding or Spotting, subjects (n), Plasma Estradiol Level >50 pg/mL: 4
  No Bleeding, subjects (%), Plasma Estradiol Level 20-50 pg/mL: (41.4%)
  No Bleeding, subjects (%), Plasma Estradiol Level <20 pg/mL: (20.7%)
  No Bleeding, subjects (%), Plasma Estradiol Level >50 pg/mL: (10.3%)
  No Bleeding, subjects (n), Plasma Estradiol Level 20-50 pg/mL: 12
  No Bleeding, subjects (n), Plasma Estradiol Level <20 pg/mL: 6
  No Bleeding, subjects (n), Plasma Estradiol Level >50 pg/mL: 3
[7]
  No Bleeding or Spotting, subjects (%), Plasma Estradiol Level 20-50 pg/mL: (50.0%)
  No Bleeding or Spotting, subjects (%), Plasma Estradiol Level <20 pg/mL: (21.4%)
  No Bleeding or Spotting, subjects (%), Plasma Estradiol Level >50 pg/mL: (21.4%)
  No Bleeding or Spotting, subjects (n), Plasma Estradiol Level 20-50 pg/mL: 7
  No Bleeding or Spotting, subjects (n), Plasma Estradiol Level <20 pg/mL: 3
  No Bleeding or Spotting, subjects (n), Plasma Estradiol Level >50 pg/mL: 3
  No Bleeding, subjects (%), Plasma Estradiol Level 20-50 pg/mL: (42.9%)
  No Bleeding, subjects (%), Plasma Estradiol Level <20 pg/mL: (21.4%)
  No Bleeding, subjects (%), Plasma Estradiol Level >50 pg/mL: (21.4%)
  No Bleeding, subjects (n), Plasma Estradiol Level 20-50 pg/mL: 6
  No Bleeding, subjects (n), Plasma Estradiol Level <20 pg/mL: 3
  No Bleeding, subjects (n), Plasma Estradiol Level >50 pg/mL: 3
[8]
  No Bleeding or Spotting, subjects (%), Plasma Estradiol Level 20-50 pg/mL: (46.7%)
  No Bleeding or Spotting, subjects (%), Plasma Estradiol Level <20 pg/mL: (20.0%)
  No Bleeding or Spotting, subjects (%), Plasma Estradiol Level >50 pg/mL: (6.7%)
  No Bleeding or Spotting, subjects (n), Plasma Estradiol Level 20-50 pg/mL: 7
  No Bleeding or Spotting, subjects (n), Plasma Estradiol Level <20 pg/mL: 3
  No Bleeding or Spotting, subjects (n), Plasma Estradiol Level >50 pg/mL: 1
  No Bleeding, subjects (%), Plasma Estradiol Level 20-50 pg/mL: (40.0%)
  No Bleeding, subjects (%), Plasma Estradiol Level <20 pg/mL: (20.0%)
  No Bleeding, subjects (%), Plasma Estradiol Level >50 pg/mL: (0.0%)
  No Bleeding, subjects (n), Plasma Estradiol Level 20-50 pg/mL: 6
  No Bleeding, subjects (n), Plasma Estradiol Level <20 pg/mL: 3
  No Bleeding, subjects (n), Plasma Estradiol Level >50 pg/mL: 0
Delayed-ABT cohort, Compound (VI) alone (first 4 weeks), FIG. 1A
  uterine bleeding / amenorrhea: amenorrhea in all subjects by week 5
[9]
  bleeding, frequency: ≤ 8%
  spotting, frequency: ≤ 11%
Delayed-ABT group
  women in amenorrhea within 5 days of treatment: ~20%
Delayed-ABT group, last 4 weeks of treatment, p=0.03
  women in amenorrhea: 40%
Delayed-ABT, Weeks 2-4, achieved in week 5
  Uterine Bleeding Pattern: amenorrhea: almost 100% amenorrhea (achieved in week 5)
Delayed-ABT, Weeks 6-10
  Uterine Bleeding Pattern: onset of spotting and bleeding: Spotting and bleeding began after 1 week of add-
